Laboratory results as given in patent US20060069132A1, “Azolecarboxamide herbicides” (priority 2004, published 2006).

Assays:
velvetleaf = assay: Test B pre-/postemergence herbicide test; assay type: in vivo, Abutilon theophrasti; details: for Velvetleaf plant response rating: postemergence, visual rating, scale 0 (no effect) to 100 (complete control)
Method in brief: (§1)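 Seeds were planted and treated preemergence with compounds formulated in a non-phytotoxic solvent mixture containing surfactant, while plants at the 1- to 4-leaf stage (2 to 18 cm) received postemergence sprays. Flooded paddy plants were grown to the 2-leaf stage. After 13 to 15 days in a greenhouse, injury was visually rated 0–100 against untreated controls.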

morningglory = assay: Test B pre-/postemergence herbicide test; assay type: in vivo, Ipomoea coccinea; details: for Morningglory plant response rating: postemergence, visual rating, scale 0 (no effect) to 100 (complete control)
Method in brief: as §1

ducksalad [1] = assay: Test C flooded paddy test; assay type: in vivo, Heteranthera limosa
blackgrass = assay: Test B postemergence herbicide test; assay type: in vivo, Alopecurus myosuroides; details: postemergence, visual rating, scale 0 (no effect) to 100 (complete control)
Method in brief: (§2)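 Postemergence plants were sprayed with formulated test chemicals at 2 to 18 cm height (1- to 4-leaf stage); paddy species were grown to the 2-leaf stage. After 13 to 15 days in a greenhouse, injury was rated visually against untreated controls on a 0–100 scale (0 = no effect, 100 = complete control).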

wild oat = assay: Test B postemergence herbicide test; assay type: in vivo, Avena fatua; details: postemergence, visual rating, scale 0 (no effect) to 100 (complete control)
Method in brief: as §2

cocklebur = assay: Test B pre-/postemergence herbicide test; assay type: in vivo, Xanthium strumarium; details: for Cocklebur plant response rating: postemergence, visual rating, scale 0 (no effect) to 100 (complete control)
Method in brief: as §1

[2] = test system: smallflower umbrella sedge; assay: Test C flooded paddy test; assay type: in vivo, Cyperus difformis
Surinam grass = assay: Test B pre-/postemergence herbicide test; assay type: in vivo, Urochloa decumbens; details: for Surinam Grass plant response rating: postemergence, visual rating, scale 0 (no effect) to 100 (complete control)
Method in brief: as §1

barnyardgrass [3] = assay: Test B flooded paddy test; assay type: in vivo, Echinochloa crus-galli; details: 1000 g ai/ha, visual rating, scale 0 to 100 (0 no effect, 100 complete control), 13 to 15 days
Method in brief: as §2

large crabgrass = assay: Test B pre-/postemergence herbicide test; assay type: in vivo, Digitaria sanguinalis; details: for Crabgrass, Large plant response rating: postemergence, visual rating, scale 0 (no effect) to 100 (complete control)
Method in brief: as §1

ducksalad [4] = assay: Test B flooded paddy test; assay type: in vivo, Heteranthera limosa; details: 1000 g ai/ha, visual rating, scale 0 to 100 (0 no effect, 100 complete control), 13 to 15 days
Method in brief: as §2

wheat = assay: Test B postemergence herbicide test; assay type: in vivo, Triticum aestivum; set-up: key to Wheat plant response rating: 0 = no effect, 100 = complete control; details: postemergence, visual rating, scale 0 (no effect) to 100 (complete control)
Method in brief: as §2

rice [5] = assay: Test C flooded paddy test; assay type: in vivo, Oryza sativa
Method in brief: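 Plants were grown to the 1- to 4-leaf stage (2–18 cm) and then treated postemergence, or grown to the 2-leaf stage for the flooded paddy test. They were held in a greenhouse for 12 to 14 days and then scored by eye against controls, where 0 is no effect and 100 is complete control.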

giant foxtail = assay: Test B pre-/postemergence herbicide test; assay type: in vivo, Setaria faberi; details: for Foxtail, Giant plant response rating: postemergence, visual rating, scale 0 (no effect) to 100 (complete control)
Method in brief: as §1

pigweed = assay: Test B pre-/postemergence herbicide test; assay type: in vivo, Amaranthus retroflexus; details: for Pigweed plant response rating: postemergence, visual rating, scale 0 (no effect) to 100 (complete control)
Method in brief: as §1

rice [6] = assay: Test B flooded paddy test; assay type: in vivo, Oryza sativa; details: 1000 g ai/ha, visual rating, scale 0 to 100 (0 no effect, 100 complete control), 13 to 15 days
Method in brief: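 Visual ratings, 0 (no effect) to 100 (complete control), made versus controls after 13–15 d greenhouse. Paddy plants treated at 2-leaf stage; postemergence plants at 1- to 4-leaf stage, 2–18 cm tall.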

corn = assay: Test B pre-/postemergence herbicide test; assay type: in vivo, Zea mays; details: for Corn plant response rating: postemergence, visual rating, scale 0 (no effect) to 100 (complete control)
Method in brief: as §1

[7] = test system: small flower umbrella sedge; assay: Test B flooded paddy test; assay type: in vivo, Cyperus difformis; details: 1000 g ai/ha, visual rating, scale 0 to 100 (0 no effect, 100 complete control), 13 to 15 days
Method in brief: as §2

barnyardgrass [8] = assay: Test C flooded paddy test; assay type: in vivo, Echinochloa crus-galli
Method in brief: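 Postemergence sprays applied to plants 2 to 18 cm tall (1- to 4-leaf stage); paddy species grown to 2-leaf stage under flooding. After 12 to 14 days in greenhouse, visual rating versus untreated controls on 0–100 scale (0 no effect, 100 complete control).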

lambsquarters = assay: Test B pre-/postemergence herbicide test; assay type: in vivo, Chenopodium album; details: for Lambsquarters plant response rating: postemergence, visual rating, scale 0 (no effect) to 100 (complete control)
Method in brief: as §1

rice [9] = assay: Test B pre-/postemergence herbicide test; assay type: in vivo, Oryza sativa; details: preemergence
Method in brief: as §1

barnyardgrass [10] = assay: Test B pre-/postemergence herbicide test; assay type: in vivo, Echinochloa crus-galli; details: for Barnyardgrass plant response rating: postemergence, visual rating, scale 0 (no effect) to 100 (complete control)
Method in brief: as §1

[11] = 125 g ai/ha, 0 = no effect, 100 = complete control, preemergence
[12] = 500 g ai/ha, visual rating 0-100, 0 no effect, 100 complete control, preemergence
[13] = 62 g ai/ha, scale 0 to 100 (0 no effect, 100 complete control)
[14] = 125 g ai/ha, scale 0 to 100 (0 no effect, 100 complete control)
[15] = 250 g ai/ha, scale of 0 to 100, 0 is no effect, 100 is complete control
[16] = 500 g ai/ha, visual rating after 12 to 14 days, scale 0 to 100 (0 no effect, 100 complete control)

CCc1nn(C(C)(C)C)cc1C(=O)Nc1cccc(C(C)=O)c1 [Compound 187]
10: Velvetleaf plant response rating (0 to 100 scale) (velvetleaf; [11]) | Velvetleaf plant response rating (velvetleaf; 500 g ai/ha) | Oat, Wild plant response rating (wild oat; 125 g ai/ha) | Surinam Grass plant response rating (Surinam grass; 125 g ai/ha) | Surinam Grass plant response rating (Surinam grass; 500 g ai/ha) | Crabgrass, Large plant response rating (large crabgrass; 125 g ai/ha) | Crabgrass, Large plant response rating (large crabgrass; 500 g ai/ha) | Foxtail, Giant plant response rating (0 to 100 scale) (giant foxtail; [11]) | Foxtail, Giant plant response rating (giant foxtail; 125 g ai/ha) | Foxtail, Giant plant response rating (giant foxtail; 500 g ai/ha) | Barnyardgrass plant response rating (barnyardgrass [10]; 125 g ai/ha) | Barnyardgrass plant response rating (barnyardgrass [10]; 500 g ai/ha)
90: Plant response rating, Ducksalad (ducksalad [1]; [16]) | Ducksalad plant response rating (ducksalad [4]) | Plant response rating, Barnyardgrass (barnyardgrass [10]; [12])
85: Ducksalad plant response rating (ducksalad [1]; [15]) | Plant response rating, Sedge, Umbrella [2, 16]
70: Cocklebur plant response rating (cocklebur; 500 g ai/ha) | Plant response rating, Surinam Grass (Surinam grass; [12]) | Crabgrass, Large plant response rating (0 to 100 scale) (large crabgrass; [11]) | Plant response rating, Foxtail, Giant (giant foxtail; [12]) | Barnyardgrass plant response rating (0 to 100 scale) (barnyardgrass [10]; [11])
100: Plant response rating, Crabgrass, Large (large crabgrass; [12])
30: Plant response rating, Morningglory (morningglory; [12]) | Cocklebur plant response rating (cocklebur; 125 g ai/ha) | Surinam Grass plant response rating (0 to 100 scale) (Surinam grass; [11]) | Rice plant response rating (rice [5]; [14]) | Rice plant response rating (rice [6]) | Rice plant response rating (0 to 100 scale) (rice [9]; 125 g ai/ha, 0 = no effect, 100 = complete control)
80: Sedge, Umbrella plant response rating [2, 15] | Sedge, Umbrella plant response rating [7] | Plant response rating, Rice (rice [9]; 500 g ai/ha, visual rating 0-100, 0 no effect, 100 complete control)
60: Barnyardgrass plant response rating (barnyardgrass [3]) | Plant response rating, Pigweed (pigweed; [12]) | Plant response rating, Corn (corn; [12]) | Barnyardgrass plant response rating (barnyardgrass [8]; [15])
20: Plant response rating, Velvetleaf (velvetleaf; [12]) | Morningglory plant response rating (0 to 100 scale) (morningglory; [11]) | Morningglory plant response rating (morningglory; 125 g ai/ha) | Morningglory plant response rating (morningglory; 500 g ai/ha) | Ducksalad plant response rating (ducksalad [1]; [13]) | Oat, Wild plant response rating (wild oat; 500 g ai/ha) | Sedge, Umbrella plant response rating [2, 13] | Pigweed plant response rating (0 to 100 scale) (pigweed; [11]) | Pigweed plant response rating (pigweed; 125 g ai/ha) | Pigweed plant response rating (pigweed; 500 g ai/ha) | Corn plant response rating (0 to 100 scale) (corn; [11]) | Corn plant response rating (corn; 500 g ai/ha) | Lambsquarters plant response rating (0 to 100 scale) (lambsquarters; [11])
75: Plant response rating, Barnyardgrass (barnyardgrass [8]; [16])
15: Rice plant response rating (rice [5]; [13])
65: Sedge, Umbrella plant response rating [2, 14] | Plant response rating, Rice (rice [5]; [16])
0: Velvetleaf plant response rating (velvetleaf; 125 g ai/ha) | Blackgrass plant response rating (blackgrass; 125 g ai/ha) | Blackgrass plant response rating (blackgrass; 500 g ai/ha) | Cocklebur plant response rating (0 to 100 scale) (cocklebur; [11]) | Plant response rating, Cocklebur (cocklebur; [12]) | Wheat plant response rating (wheat; 125 g ai/ha) | Wheat plant response rating (wheat; 500 g ai/ha) | Corn plant response rating (corn; 125 g ai/ha) | Barnyardgrass plant response rating (barnyardgrass [8]; [13]) | Lambsquarters plant response rating (lambsquarters; 125 g ai/ha) | Lambsquarters plant response rating (lambsquarters; 500 g ai/ha)
40: Ducksalad plant response rating (ducksalad [1]; [14]) | Plant response rating, Lambsquarters (lambsquarters; [12])
25: Barnyardgrass plant response rating (barnyardgrass [8]; 125 g ai/ha, scale of 0 to 100, 0 is no effect, 100 is complete control)
50: Rice plant response rating (rice [5]; [15])
